Results: PubChem BioAssay (NCI)
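Each compound was tested at five concentrations against cells in 96-well plates for 48 hours. Abbreviation: GI50, concentration required for 50% inhibition of growth. TGI: concentration producing complete growth inhibition.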

Columns and labels:
Test in all cases: inhibition of tumour cell growth, NCI panel, 48 h
[1] = tested on: 786-0 renal
[2] = tested on: A498 renal
[3] = tested on: A549 NSCLC
[4] = tested on: ACHN renal
[5] = tested on: CAKI-1 renal
[6] = tested on: CCRF-CEM leukemia
[7] = tested on: COLO 205 colon
[8] = tested on: DLD-1 colon
[9] = tested on: DMS 114 small cell lung
[10] = tested on: DMS 273 small cell lung
[11] = tested on: EKVX NSCLC
[12] = tested on: HCC-2998 colon
[13] = tested on: HCT-116 colon
[14] = tested on: HCT-15 colon
[15] = tested on: HL-60(TB) leukemia
[16] = tested on: HOP-18 NSCLC
[17] = tested on: HOP-62 NSCLC
[18] = tested on: HOP-92 NSCLC
[19] = tested on: HT29 colon
[20] = tested on: IGROV1 ovarian
[21] = tested on: K-562 leukemia
[22] = tested on: KM12 colon
[23] = tested on: LXFL 529 NSCLC
[24] = tested on: M14 melanoma
[25] = tested on: M19-MEL melanoma
[26] = tested on: MALME-3M melanoma
[27] = tested on: MOLT-4 leukemia
[28] = tested on: NCI-H226 lung
[29] = tested on: NCI-H23 lung
[30] = tested on: NCI-H460 lung
[31] = tested on: NCI-H522 lung
[32] = tested on: OVCAR-3 ovarian
[33] = tested on: OVCAR-4 ovarian
[34] = tested on: OVCAR-5 ovarian
[35] = tested on: OVCAR-8 ovarian
[36] = tested on: RPMI-8226 leukemia
[37] = tested on: SF-268 CNS
[38] = tested on: SF-295 CNS
[39] = tested on: SF-539 CNS
[40] = tested on: SK-MEL-2 melanoma
[41] = tested on: SK-MEL-28 melanoma
[42] = tested on: SK-MEL-5 melanoma
[43] = tested on: SK-OV-3 ovarian
[44] = tested on: SN12C renal
[45] = tested on: SNB-19 CNS
[46] = tested on: SNB-75 CNS
[47] = tested on: SNB-78 CNS
[48] = tested on: SR leukemia
[49] = tested on: SW-620 colon
[50] = tested on: TK-10 renal
[51] = tested on: U251 CNS
[52] = tested on: UACC-257 melanoma
[53] = tested on: UACC-62 melanoma
[54] = tested on: UO-31 renal
[55] = tested on: KM20L2 colon
[56] = tested on: LOX IMVI melanoma
[57] = tested on: RXF 393 renal
[58] = tested on: XF 498 CNS

## CC1(c2ccccc2)CC(c2ccccc2)=NO1 (configuration not stated)
[1]
  TGI: > 100 µM
[2]
  TGI: > 100 µM
[3]
  TGI: > 100 µM
[4]
  TGI: > 100 µM
[5]
  TGI: > 100 µM
[6]
  TGI: > 100 µM
[7]
  TGI: > 100 µM
[8]
  TGI: > 100 µM
[9]
  TGI: > 100 µM
[10]
  TGI: > 100 µM
[11]
  TGI: > 100 µM
[12]
  TGI: > 100 µM
[13]
  TGI: > 100 µM
[14]
  TGI: > 100 µM
[15]
  TGI: > 100 µM
[16]
  TGI: > 100 µM
[17]
  TGI: > 100 µM
[18]
  TGI: > 100 µM
[19]
  TGI: > 100 µM
[20]
  TGI: > 100 µM
[21]
  TGI: > 100 µM
[22]
  TGI: > 100 µM
[23]
  TGI: > 100 µM
[24]
  TGI: > 100 µM
[25]
  TGI: > 100 µM
[26]
  TGI: > 100 µM
[27]
  TGI: > 100 µM
[28]
  TGI: > 100 µM
[29]
  TGI: > 100 µM
[30]
  TGI: > 100 µM
[31]
  TGI: > 100 µM
[32]
  TGI: > 100 µM
[33]
  TGI: > 100 µM
[34]
  TGI: > 100 µM
[35]
  TGI: > 100 µM
[36]
  TGI: > 100 µM
[37]
  TGI: > 100 µM
[38]
  TGI: > 100 µM
[39]
  TGI: > 100 µM
[40]
  TGI: > 100 µM
[41]
  TGI: > 100 µM
[42]
  TGI: > 100 µM
[43]
  TGI: > 100 µM
[44]
  TGI: > 100 µM
[45]
  TGI: > 100 µM
[46]
  TGI: > 100 µM
[47]
  TGI: > 100 µM
[48]
  TGI: > 100 µM
[49]
  TGI: > 100 µM
[50]
  TGI: > 100 µM
[51]
  TGI: > 100 µM
[52]
  TGI: > 100 µM
[53]
  TGI: > 100 µM
[54]
  TGI: > 100 µM

## CC(=O)[O-].CC(=O)[O-].CC(=O)[O-].CC(=O)[O-].[Mo+2].[Mo+2]
[1]
  GI50: > 100 µM
  TGI: > 100 µM
[2]
  GI50: > 100 µM
  TGI: > 100 µM
[3]
  GI50: > 100 µM
  TGI: > 100 µM
[4]
  GI50: > 100 µM
  TGI: > 100 µM
[5]
  GI50: > 100 µM
  TGI: > 100 µM
[6]
  GI50: > 100 µM
  TGI: > 100 µM
[7]
  GI50: > 100 µM
  TGI: > 100 µM
[8]
  GI50: > 100 µM
  TGI: > 100 µM
[10]
  GI50: > 100 µM
  TGI: > 100 µM
[11]
  GI50: > 100 µM
  TGI: > 100 µM
[12]
  GI50: > 100 µM
  TGI: > 100 µM
[13]
  GI50: > 100 µM
  TGI: > 100 µM
[14]
  GI50: > 100 µM
  TGI: > 100 µM
[15]
  GI50: > 100 µM
  TGI: > 100 µM
[16]
  GI50: > 100 µM
  TGI: > 100 µM
[17]
  GI50: > 100 µM
  TGI: > 100 µM
[18]
  GI50: 39.9 µM
  TGI: > 100 µM
[19]
  GI50: > 100 µM
  TGI: > 100 µM
[20]
  GI50: > 100 µM
  TGI: > 100 µM
[21]
  GI50: > 100 µM
  TGI: > 100 µM
[22]
  GI50: > 100 µM
  TGI: > 100 µM
[55]
  GI50: > 100 µM
  TGI: > 100 µM
[56]
  GI50: > 100 µM
  TGI: > 100 µM
[23]
  GI50: > 100 µM
  TGI: > 100 µM
[24]
  GI50: > 100 µM
  TGI: > 100 µM
[26]
  GI50: > 100 µM
  TGI: > 100 µM
[27]
  GI50: > 100 µM
  TGI: > 100 µM
[28]
  GI50: > 100 µM
  TGI: > 100 µM
[29]
  GI50: > 100 µM
  TGI: > 100 µM
[30]
  GI50: > 100 µM
  TGI: > 100 µM
[31]
  GI50: > 100 µM
  TGI: > 100 µM
[32]
  GI50: > 100 µM
  TGI: > 100 µM
[33]
  GI50: > 100 µM
  TGI: > 100 µM
[34]
  GI50: > 100 µM
  TGI: > 100 µM
[35]
  GI50: > 100 µM
  TGI: > 100 µM
[36]
  GI50: > 100 µM
  TGI: > 100 µM
[57]
  GI50: > 100 µM
  TGI: > 100 µM
[37]
  GI50: > 100 µM
  TGI: > 100 µM
[38]
  GI50: > 100 µM
  TGI: > 100 µM
[39]
  GI50: > 100 µM
  TGI: > 100 µM
[40]
  GI50: > 100 µM
  TGI: > 100 µM
[41]
  GI50: > 100 µM
  TGI: > 100 µM
[42]
  GI50: > 100 µM
  TGI: > 100 µM
[43]
  GI50: > 100 µM
  TGI: > 100 µM
[44]
  GI50: > 100 µM
  TGI: > 100 µM
[45]
  GI50: > 100 µM
  TGI: > 100 µM
[46]
  GI50: 63.5 µM
  TGI: > 100 µM
[47]
  GI50: > 100 µM
  TGI: > 100 µM
[49]
  GI50: > 100 µM
  TGI: > 100 µM
[50]
  GI50: > 100 µM
  TGI: > 100 µM
[51]
  GI50: > 100 µM
  TGI: > 100 µM
[52]
  GI50: > 100 µM
  TGI: > 100 µM
[53]
  GI50: > 100 µM
  TGI: > 100 µM
[54]
  GI50: > 100 µM
  TGI: > 100 µM

## CCOC(=O)C(=O)Nc1ccccc1C(F)(F)F
[1]
  TGI: > 100 µM
[2]
  TGI: > 100 µM
[3]
  TGI: > 100 µM
[4]
  TGI: > 100 µM
[5]
  TGI: > 100 µM
[7]
  TGI: > 100 µM
[8]
  TGI: > 100 µM
[10]
  TGI: > 100 µM
[11]
  TGI: > 100 µM
[12]
  TGI: > 100 µM
[13]
  TGI: > 100 µM
[14]
  TGI: > 100 µM
[16]
  TGI: > 100 µM
[17]
  TGI: > 100 µM
[18]
  TGI: > 100 µM
[19]
  TGI: > 100 µM
[20]
  TGI: > 100 µM
[22]
  TGI: > 100 µM
[55]
  TGI: > 100 µM
[56]
  TGI: > 100 µM
[23]
  TGI: > 100 µM
[24]
  TGI: > 100 µM
[26]
  TGI: > 100 µM
[28]
  TGI: > 100 µM
[29]
  TGI: > 100 µM
[30]
  TGI: > 100 µM
[32]
  TGI: > 100 µM
[33]
  TGI: > 100 µM
[34]
  TGI: > 100 µM
[35]
  TGI: > 100 µM
[36]
  TGI: > 100 µM
[57]
  TGI: > 100 µM
[37]
  TGI: > 100 µM
[38]
  TGI: > 100 µM
[39]
  TGI: > 100 µM
[40]
  TGI: > 100 µM
[41]
  TGI: > 100 µM
[43]
  TGI: > 100 µM
[44]
  TGI: > 100 µM
[45]
  TGI: > 100 µM
[46]
  TGI: > 100 µM
[47]
  TGI: > 100 µM
[48]
  TGI: > 100 µM
[49]
  TGI: > 100 µM
[50]
  TGI: > 100 µM
[51]
  TGI: > 100 µM
[52]
  TGI: > 100 µM
[53]
  TGI: > 100 µM
[54]
  TGI: > 100 µM
[58]
  TGI: > 100 µM
